Here are results for four compounds from US8101745B2, “Lung-targeted drugs” (priority 2004, dated 2012).

As a reminder, the EC50 is the concentration giving half of the maximal effect.

The conditions of data set [1]: in vivo; cited from earlier work.
Data set [2] deals with Vaccinia Copenhagen. The note with it: cited from earlier work; for EC50: Vaccinia Copenhagen, effective dose 50%.
Data set [3] has as its system Cowpox Brighton. The note with it: cited from earlier work.
For data set [4], the system named is ectromelia virus. The following applies: mouse, in vivo, po, cited from earlier work.
The conditions of data set [5]: toxic dose 50%; read-out: TC50 (the source's name); cited from earlier work.
Data set [6] relates to Cowpox Brighton. The format is cell-based.
In data set [7] the test system is Vaccinia Copenhagen. The format is cell-based.
The nature of data set [8]: Oral pharmacokinetics of 14C-labeled drug, liver and lung levels in mice. The note with it: for AUC 14C-Drug Liver / AUC 14C-Drug Lung / Ratio Lung/Liver / Ratio Liver/Lung: 10 mg/kg single oral dose, 0 to 72 hours; for Ratio Lung/Liver / Ratio Liver/Lung: ratio of AUC.
Data set [9] relates to ectromelia virus. Set-up: species or system Female A/NCR mice. The following applies: mouse, in vivo, po.

“And” between values parts separate entries of the source, which are not always exact repeats. Equal values may be shown once. Read-outs that look alike come from different tables or passages of the source.

Consider `Nc1ccn(C[C@@H](CO)OCP(=O)(O)O)c(=O)n1` [CDV, cidofovir], for which, in [1], the oral bioavailability is given as less than 6%. The EC50 in [2] was 31000 nM. The EC50 in data set [3] is 42000 nM. Besides, in data set [4] (10 mg/kg), the Lung titer is given as 3 × 10^6 pfu/ml, the Mortality is on record as 100% and the Spleen titer is listed as 3 × 10^6 pfu/ml. Further, the CC50 in data set [5] was greater than 317000 nM. The compound further showed an SI in data set [6] greater than 7.5. The compound further showed an SI in data set [7] greater than 10.
Take `CCCCCCCCCCCCCCCCOCCCOP(=O)(O)CO[C@H](CO)Cn1ccc(N)nc1=O` [HDP-CDV, hexadecyloxypropyl-CDV]: the EC50 in data set [2] is 600 nM. For the same compound, the EC50 in [3] is 500 nM. Moreover, in data set [4] (10 mg/kg), the Liver titer is given as <10^2 pfu/ml, the Lung titer is listed as 5 × 10^4 pfu/ml, the Mortality was 0% and the Spleen titer is given as <10^2 pfu/ml. The CC50 in [5] was 29000 nM. In addition, in data set [6], the SI is 58. In data set [7], the SI came to 48. In [8] (mice), the “AUC 14C-Drug Liver” value is 1367 nmol · gm · hrs and the “AUC 14C-Drug Lung” value was 49 nmol · gm · hrs. Besides, the “Ratio Lung/Liver” value in [8] turned out to be 0.04. In addition, the “Ratio Liver/Lung” value in [8] (10 mg/kg) stood at 27.9.
Take `CCCCCCCCCCCCCCCCCCOC[C@H](COP(=O)(O)CO[C@H](CO)Cn1ccc(N)nc1=O)OCc1ccccc1` [ODBG-CDV, 1-O-Octadecyl-2-O-benzyl-sn-glycero-3-cidofovir]: the EC50 in data set [2] was 400 nM. Moreover, the “activity against vaccinia virus in vitro” value in [2] (in words) is given as “highly active”. Also, in [3], the EC50 was 300 nM and the “activity against cowpox virus in vitro” value is recorded as “highly active”. The CC50 in data set [5] is 47000 nM. Also, in [9], the “Mortality day 21” value is 2/10 and 0/10; the protection from death entry was “provides protection from death”. Besides, the “Mean time to death” value in data set [9] (2 mg/kg/day) is reported as 13.0 ± 1.4. The compound further had an SI in [6] of 157. Further, the SI in data set [7] amounted to 118. The “Lung levels of 14C-labeled drug” value in data set [8] (10 mg/kg oral, mice, over 72 hours, compared with HDP-CDV or ODE-CDV (FIG. 1)) is reported as “much higher”. Further, the “liver levels of 14C-labeled drug” value in [8] (10 mg/kg oral, mice, over 72 hours, compared with HDP-CDV or ODE-CDV (FIG. 2)) is recorded as “lower”. Besides, in data set [8] (mice), the “AUC 14C-Drug Liver” value is listed as 318 nmol · gm · hrs and the “AUC 14C-Drug Lung” value is listed as 581 nmol · gm · hrs. The “lung area under curve relative to alkoxyalkyl derivatives of CDV” value in data set [8] (given orally, versus non lung-targeted alkoxyalkyl derivatives) worked out at 10 fold. In data set [8], the “Ratio Liver/Lung” value was 0.55 and the “Ratio Lung/Liver” value was determined as 1.82.
`CCCCCCCCCCCCCCCCCCOCCOP(=O)(O)CO[C@H](CO)Cn1ccc(N)nc1=O` [ODE-CDV, octadecyloxyethyl-CDV]: the EC50 in [2] was 600 nM. Besides, the EC50 in [3] is 500 nM. In addition, in [4] (5 mg/kg), the Liver titer is given as <10^2 pfu/ml, the Lung titer is 3 × 10^5 pfu/ml, the Mortality was 0% and the Spleen titer is given as <10^2 pfu/ml. Also, the CC50 in data set [5] was 21000 nM. Also, the SI in data set [6] is given as 105. In addition, in data set [7], the SI stood at 105. In data set [8] (mice), the “AUC 14C-Drug Liver” value is on record as 1215 nmol · gm · hrs and the “AUC 14C-Drug Lung” value turned out to be 60 nmol · gm · hrs. Further, the “Ratio Lung/Liver” value in [8] was found to be 0.05. Also, the “Ratio Liver/Lung” value in [8] (10 mg/kg) is reported as 20.3.
